In patent publication US6583137B1, “Protease inhibitors” (SmithKline Beecham Corporation, priority 1999, dated 2003):

Assay: Chiral / configurational stability at the carbon alpha to the ketone
Assay type: physicochemical

[2H]C1(NC(=O)[C@H](CC(C)C)NC(=O)c2cnc3ccccc3n2)CCCN(S(=O)(=O)c2cccc[n+]2[O-])C([2H])([2H])C1=O (stereo partly drawn) [present compound, quinoxaline-2-carboxylic acid {(S)-3-methyl-1-[(2,2′,4-trideuterio)-3-oxo-1-(1-oxy-pyridine-2-sulfonyl)-azepan-4-ylcarbamoyl]-butyl}amide]
configurational stability at the carbon center alpha to the ketone (compared to the corresponding 5 and 6 membered ring compounds): configurationally more stable
chiral stability (compared to the protonated isomer): superior chiral stability
